Reference: article PMC6572064, “Discovery of 2-(1-(3-(4-Chloroxyphenyl)-3-oxo- propyl)pyrrolidine-3-yl)-1H-benzo[d]imidazole-4-carboxamide: A Potent Poly(ADP-ribose) Polymerase (PARP) Inhibitor for Treatment of Cancer” (Molecules, 2019)
pIC50: −log10 of the molar value. Read-outs that look alike come from different tables or passages of the source.

Assays:
PARP-1 = molecular target: T1, PARP-1 (Homo sapiens, UniProt P09874); test: PARP-1 inhibition assay (PARP-1 Chemiluminescent Assay Kit, BPS Bioscience); format: biochemical; details: for inhibition at 0.01 µM: 10 nM compound
T1 construct: purchased BPS Bioscience 80569
Protocol: (§1) The PARP-1 and PARP-2 inhibition assays were performed in outsourcing, by a CRO company, Shanghai Medicilon Inc. (Shanghai, China). […] Briefly, PARP-1 or PARP-2 biotinylated substrate was incubated with compounds or solvent control at varying concentrations and an assay buffer containing the PARP-1 or PARP-2 enzyme.

[1] = system: MDA-MB-436 (a BRCA-1-mutated breast cancer cell line); test: Cell proliferation assay, three-day, CellTiter-Glo, MDA-MB-436; format: cell-based; details: for inhibition at 0.00508 µM: MDA-MB-436, MDA-MB-436, Conc. 0.00508 uM; for inhibition at 0.0152 µM: MDA-MB-436, MDA-MB-436, Conc. 0.0152 uM; for inhibition at 0.0457 µM: MDA-MB-436, MDA-MB-436, Conc. 0.0457 uM; for inhibition at 0.41 µM: MDA-MB-436, MDA-MB-436, Conc. 0.41 uM; for inhibition at 1.23 µM: MDA-MB-436, MDA-MB-436, Conc. 1.23 uM; for inhibition at 3.7 µM: MDA-MB-436, MDA-MB-436, Conc. 3.70 uM; for inhibition at 11.11 µM: MDA-MB-436, MDA-MB-436, Conc. 11.11 uM; for inhibition at 33.33 µM: MDA-MB-436, MDA-MB-436, Conc. 33.33 uM; for inhibition at 100 µM: MDA-MB-436, MDA-MB-436, Conc. 100.00 uM
Summary of the method: (§2)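 Luminescent ATP read-out (CellTiter-Glo, 60 min at room temperature) quantified viability after a 72 h compound exposure at 37 °C, 5% CO2. Compounds, diluted from DMSO stocks into growth medium, were added to cells plated the previous day.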

[2] = system: CAPAN-1 (a BRCA-2-mutated pancreatic cancer cell line); test: Cell proliferation assay, three-day, CellTiter-Glo, CAPAN-1; format: cell-based; details: for inhibition at 0.00508 µM: CAPAN-1, Conc. 0.00508 uM; for inhibition at 0.0152 µM: CAPAN-1, Conc. 0.0152 uM; for inhibition at 0.0457 µM: CAPAN-1, Conc. 0.0457 uM; for inhibition at […]: CAPAN-1, Conc. 0.14 uM; for inhibition at 0.41 µM: CAPAN-1, Conc. 0.41 uM; for inhibition at 1.23 µM: CAPAN-1, Conc. 1.23 uM; for inhibition at 3.7 µM: CAPAN-1, Conc. 3.70 uM; for inhibition at 11.11 µM: CAPAN-1, Conc. 11.11 uM; for inhibition at 33.33 µM: CAPAN-1, Conc. 33.33 uM; for inhibition at 100 µM: CAPAN-1, Conc. 100.00 uM
Summary of the method: as §2

PARP-2 = molecular target: T2, PARP-2 (Homo sapiens, UniProt Q9UGN5); test: PARP-2 inhibition assay (PARP-2 Chemiluminescent Assay Kit, BPS Bioscience); format: biochemical; details: for inhibition at 0.01 µM: 10 nM compound
T2 construct: purchased BPS Bioscience 80552
Protocol: as §1

[3] = Homo sapiens, replicate 1, read-out: Inh % 1
[4] = Homo sapiens, replicate 2, read-out: Inh % 2

T1 sequence (P09874 whole entry): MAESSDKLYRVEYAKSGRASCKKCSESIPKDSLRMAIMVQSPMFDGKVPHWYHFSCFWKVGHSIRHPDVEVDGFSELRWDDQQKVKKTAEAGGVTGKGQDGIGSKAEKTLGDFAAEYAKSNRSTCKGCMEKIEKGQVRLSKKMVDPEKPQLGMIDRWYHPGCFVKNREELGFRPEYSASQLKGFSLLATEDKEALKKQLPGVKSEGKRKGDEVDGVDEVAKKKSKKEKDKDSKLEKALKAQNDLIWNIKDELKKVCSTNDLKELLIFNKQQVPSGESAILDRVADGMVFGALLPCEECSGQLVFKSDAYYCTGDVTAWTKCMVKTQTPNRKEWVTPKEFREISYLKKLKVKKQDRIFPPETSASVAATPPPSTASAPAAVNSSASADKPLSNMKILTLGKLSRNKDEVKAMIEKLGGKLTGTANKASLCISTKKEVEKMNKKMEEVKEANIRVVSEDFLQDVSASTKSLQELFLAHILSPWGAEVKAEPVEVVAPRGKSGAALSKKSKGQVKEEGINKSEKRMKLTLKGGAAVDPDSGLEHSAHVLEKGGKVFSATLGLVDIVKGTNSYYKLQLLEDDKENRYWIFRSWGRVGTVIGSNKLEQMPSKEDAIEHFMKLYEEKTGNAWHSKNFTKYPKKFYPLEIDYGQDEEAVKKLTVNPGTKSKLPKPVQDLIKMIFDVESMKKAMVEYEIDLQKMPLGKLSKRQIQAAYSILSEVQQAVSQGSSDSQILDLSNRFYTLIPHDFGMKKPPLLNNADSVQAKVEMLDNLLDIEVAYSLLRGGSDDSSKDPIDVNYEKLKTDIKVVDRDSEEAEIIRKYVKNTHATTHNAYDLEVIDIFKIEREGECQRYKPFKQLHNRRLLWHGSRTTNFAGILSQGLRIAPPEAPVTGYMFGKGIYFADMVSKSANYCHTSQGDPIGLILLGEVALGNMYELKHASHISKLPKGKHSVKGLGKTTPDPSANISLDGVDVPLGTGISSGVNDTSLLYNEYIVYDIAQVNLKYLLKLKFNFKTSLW
T2 sequence (Q9UGN5 whole entry): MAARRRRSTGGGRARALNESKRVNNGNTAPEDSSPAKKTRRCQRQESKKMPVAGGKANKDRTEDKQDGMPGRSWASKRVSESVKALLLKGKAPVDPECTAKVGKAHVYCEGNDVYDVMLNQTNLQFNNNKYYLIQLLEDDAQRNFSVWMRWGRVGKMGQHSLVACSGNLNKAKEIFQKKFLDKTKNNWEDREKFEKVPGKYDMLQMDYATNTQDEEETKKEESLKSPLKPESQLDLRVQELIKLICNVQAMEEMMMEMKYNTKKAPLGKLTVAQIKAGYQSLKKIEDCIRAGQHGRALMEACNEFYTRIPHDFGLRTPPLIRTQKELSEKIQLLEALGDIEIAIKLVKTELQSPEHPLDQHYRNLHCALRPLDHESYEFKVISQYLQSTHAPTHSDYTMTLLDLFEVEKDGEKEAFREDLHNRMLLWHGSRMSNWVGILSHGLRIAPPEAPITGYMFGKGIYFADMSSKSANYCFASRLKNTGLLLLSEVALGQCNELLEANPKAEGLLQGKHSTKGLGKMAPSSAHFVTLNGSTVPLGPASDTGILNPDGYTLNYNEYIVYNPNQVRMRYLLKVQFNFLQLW

inhibition at 0.01 µM (PARP-1; supplement sheet, read-out: 10 nM inhibition% PAPR-1): 68% | inhibition at 0.01 µM (PARP-1; read-out: PARP-1 Inhibition % (10 nM)): 68% | pIC50 (PARP-1; read-out: PARP-1 IC50): 8.44 | pIC50 (PARP-1; supplement sheet, read-out: IC50 PAPR-1): 8.44 | pIC50 ([1]; Homo sapiens, MDA-MB-436, 72 h, CellTiter-Glo, read-out: MDA-MB-436 IC50): 4.70 | pIC50 ([1]; Homo sapiens, MDA-MB-436, 72 h, supplement Summary sheet, read-out: IC50): 4.70 | IC50 ([1]; Homo sapiens, MDA-MB-436, curve-fit parameter list, concentrations in uM, read-out: IC50): 19.8 µM | pIC50 ([2]; Homo sapiens, CAPAN-1, 72 h, CellTiter-Glo, read-out: CAPAN-1 IC50): 4.81 | pIC50 ([2]; Homo sapiens, CAPAN-1, 72 h, supplement Summary sheet, read-out: IC50): 4.81 | IC50 ([2]; Homo sapiens, CAPAN-1, curve-fit output, concentration axis Log (uM), read-out: IC50): 15.5 µM | inhibition at 0.01 µM (PARP-2; supplement sheet, read-out: 10 nM inhibition% PAPR-2): 76.8% | inhibition at 0.01 µM (PARP-2; read-out: PARP-2 Inhibition % (10 nM)): 76.7% | pIC50 (PARP-2; read-out: PARP-2 IC50): 8.49 | pIC50 (PARP-2; supplement sheet, read-out: IC50 PAPR-2): 8.50
Structure (SMILES): NC(=O)c1cccc2[nH]c(C3CCN(CCC(=O)c4ccccc4)C3)nc12 (centres unmarked) [Compound 5cp, 2-(1-(3-Oxo-3-phenylpropyl)pyrrolidin-3-yl)-1H-benzo[d]imidazole-4-carboxamide]
inhibition at 0.00508 µM [1, 3]: -1.4% | inhibition at 0.00508 µM [1, 4]: -0.3% | inhibition at 0.0152 µM [1, 3]: -1.8% | inhibition at 0.0152 µM [1, 4]: -8.4% | inhibition at 0.0457 µM [1, 3]: -13.1% | inhibition at 0.0457 µM [1, 4]: -7% | inhibition at 0.41 µM [1, 3]: -6.8% | inhibition at 0.41 µM [1, 4]: -9.9% | inhibition at 1.23 µM [1, 3]: -10% | inhibition at 1.23 µM [1, 4]: -7.6% | inhibition at 3.7 µM [1, 3]: -1.8% | inhibition at 3.7 µM [1, 4]: -0.0749% | inhibition at 11.11 µM [1, 3]: 7.8% | inhibition at 11.11 µM [1, 4]: 4.7% | inhibition at 33.33 µM [1, 3]: 91.6% | inhibition at 33.33 µM [1, 4]: 79.7% | inhibition at 100 µM [1, 3]: 99.8% | inhibition at 100 µM [1, 4]: 99.4% | LogIC50 ([1]; MDA-MB-436, curve-fit parameter list, Log (uM)): 1.296 | Inh % 1 ([2]; CAPAN-1, Conc. printed as #REF!, replicate 1): 18.8% | Inh % 2 ([2]; CAPAN-1, Conc. printed as #REF!, replicate 2): 21.3% | LogIC50 ([2]; CAPAN-1, curve-fit output, concentration axis Log (uM)): 1.19 | inhibition at 0.00508 µM [2, 3]: -4.4% | inhibition at 0.00508 µM [2, 4]: -9.4% | inhibition at 0.0152 µM [2, 3]: 3.3% | inhibition at 0.0152 µM [2, 4]: -2.6% | inhibition at 0.0457 µM [2, 3]: 0.846% | inhibition at 0.0457 µM [2, 4]: -4.3% | inhibition at […] [2, 3]: 4.9% | inhibition at […] [2, 4]: -2.2% | inhibition at 0.41 µM [2, 3]: -7.8% | inhibition at 0.41 µM [2, 4]: -11.6% | inhibition at 1.23 µM [2, 3]: 17.2% | inhibition at 1.23 µM [2, 4]: -4.7% | inhibition at 3.7 µM [2, 3]: -2.4% | inhibition at 3.7 µM [2, 4]: -0.7% | inhibition at 11.11 µM [2, 3]: 18.7% | inhibition at 11.11 µM [2, 4]: 8.5% | inhibition at 33.33 µM [2, 3]: 98.2% | inhibition at 33.33 µM [2, 4]: 97.2% | inhibition at 100 µM [2, 3]: 99.7% | inhibition at 100 µM [2, 4]: 99.1%
